Reference: the NIST ThermoML archive (doi:10.1016/j.jct.2016.09.026)

What was measured:
[1] = Crystal; DTA
[2] = molar heat capacity at constant pressure; conditions: 101.33 kPa, Small sample (50 mg) DSC
[3] = molar enthalpy of vaporization or sublimation; conditions: 381.12 K; Liquid; Static calorimetry
[4] = Molar enthalpy of transition or fusion; conditions: Crystal; DSC

CCCCCCC(=O)c1ccc(O)cc1 [1-(4-hydroxyphenyl)-1-heptanone]
Conditions | Molar enthalpy of transition or fusion [kcal/mol] | Normal melting temperature [°C] | molar enthalpy [kcal/mol]
[1] | – | 92 | –
[3] | – | – | 24.2
[4] | 7.5 | – | –

[2]
Conditions | molar heat capacity at constant pressure [J/K/mol]
288.67 K, Crystal | 291
289.17 K, Crystal | 292.2
289.67 K, Crystal | 289.9
290.17 K, Crystal | 290.9
290.68 K, Crystal | 292.7
291.18 K, Crystal | 295
291.68 K, Crystal | 296.8
292.18 K, Crystal | 295.6
292.69 K, Crystal | 295.3
293.19 K, Crystal | 296.8
293.69 K, Crystal | 295
294.19 K, Crystal | 297.4
294.69 K, Crystal | 297.4
295.19 K, Crystal | 296.8
295.69 K, Crystal | 301
296.19 K, Crystal | 302.3
296.7 K, Crystal | 300.1
297.2 K, Crystal | 300.6
297.7 K, Crystal | 300.7
298.2 K, Crystal | 300.2
298.7 K, Crystal | 303
299.2 K, Crystal | 302.5
299.7 K, Crystal | 304.8
300.2 K, Crystal | 307.5
300.7 K, Crystal | 306.2
301.2 K, Crystal | 305.9
301.7 K, Crystal | 306.8
302.2 K, Crystal | 306.5
302.7 K, Crystal | 307.3
303.2 K, Crystal | 308.7
303.7 K, Crystal | 307.9
304.2 K, Crystal | 309.2
304.7 K, Crystal | 311.7
305.2 K, Crystal | 310
305.7 K, Crystal | 309.6
306.2 K, Crystal | 311.9
306.7 K, Crystal | 312.9
307.2 K, Crystal | 311.4
307.7 K, Crystal | 311.2
308.2 K, Crystal | 310.6
308.7 K, Crystal | 313.4
309.2 K, Crystal | 314
309.7 K, Crystal | 314.4
310.2 K, Crystal | 315.8
310.7 K, Crystal | 314.9
311.2 K, Crystal | 316.7
311.7 K, Crystal | 318
312.2 K, Crystal | 317.3
312.7 K, Crystal | 318.1
313.2 K, Crystal | 319.2
313.7 K, Crystal | 320.9
314.2 K, Crystal | 320.5
314.7 K, Crystal | 319.8
315.2 K, Crystal | 319.7
315.7 K, Crystal | 323.3
316.2 K, Crystal | 322.8
316.7 K, Crystal | 323.2
317.2 K, Crystal | 324
317.7 K, Crystal | 323.8
318.2 K, Crystal | 325.7
318.7 K, Crystal | 324.1
319.2 K, Crystal | 327.1
319.7 K, Crystal | 327.1
320.2 K, Crystal | 324.7
320.7 K, Crystal | 327.1
321.2 K, Crystal | 328.9
321.7 K, Crystal | 328.9
322.2 K, Crystal | 330.3
322.7 K, Crystal | 329.6
323.2 K, Crystal | 331.2
323.7 K, Crystal | 332
324.2 K, Crystal | 330.5
324.7 K, Crystal | 331.9
325.2 K, Crystal | 333.5
325.7 K, Crystal | 333.6
326.2 K, Crystal | 334.4
326.7 K, Crystal | 335
327.2 K, Crystal | 335.2
327.7 K, Crystal | 334.1
328.2 K, Crystal | 335
328.7 K, Crystal | 337.4
329.2 K, Crystal | 336.3
329.7 K, Crystal | 338.1
330.2 K, Crystal | 338.7
330.7 K, Crystal | 337.8
331.2 K, Crystal | 338.5
331.7 K, Crystal | 339.5
332.2 K, Crystal | 340.3
332.7 K, Crystal | 342.3
333.2 K, Crystal | 341.3
333.7 K, Crystal | 342.1
334.2 K, Crystal | 343.3
334.7 K, Crystal | 343.6
335.2 K, Crystal | 343.9
335.7 K, Crystal | 346.5
336.2 K, Crystal | 344.9
336.7 K, Crystal | 346.6
337.2 K, Crystal | 346.4
337.7 K, Crystal | 346.9
338.2 K, Crystal | 349.4
338.7 K, Crystal | 347.8
339.19 K, Crystal | 348.2
339.69 K, Crystal | 348.7
340.2 K, Crystal | 350.4
340.7 K, Crystal | 352.5
341.2 K, Crystal | 350.7
341.7 K, Crystal | 350.7
342.2 K, Crystal | 351.4
342.7 K, Crystal | 351.7
343.19 K, Crystal | 353.4
343.69 K, Crystal | 353.1
344.19 K, Crystal | 353.4
344.69 K, Crystal | 356.8
345.19 K, Crystal | 357
345.69 K, Crystal | 355.2
346.19 K, Crystal | 357.3
346.69 K, Crystal | 357.3
347.19 K, Crystal | 358.3
347.69 K, Crystal | 359.2
348.19 K, Crystal | 360.3
348.69 K, Crystal | 361.6
349.19 K, Crystal | 362.4
349.69 K, Crystal | 360.9
350.19 K, Crystal | 361.8
350.69 K, Crystal | 363.3
351.19 K, Crystal | 364.3
351.69 K, Crystal | 363.9
352.19 K, Crystal | 363.4
352.69 K, Crystal | 366
353.19 K, Crystal | 365.4
353.69 K, Crystal | 368.2
354.19 K, Crystal | 369.3
354.69 K, Crystal | 370
355.19 K, Crystal | 372.4
355.69 K, Crystal | 375.2
356.19 K, Crystal | 373.6
356.69 K, Crystal | 374.5
357.19 K, Crystal | 374.8
357.69 K, Crystal | 380
358.19 K, Crystal | 380.1
358.69 K, Crystal | 381.4
359.19 K, Crystal | 382.3
359.69 K, Crystal | 387
360.19 K, Crystal | 391.3
360.69 K, Crystal | 393.9
361.19 K, Crystal | 397.9
361.69 K, Crystal | 403.5
362.19 K, Crystal | 413.1
362.69 K, Crystal | 424.4
363.19 K, Crystal | 446.7
370.2 K, Liquid | 458.6
370.7 K, Liquid | 460.1
371.19 K, Liquid | 461.4
371.69 K, Liquid | 461.5
372.19 K, Liquid | 463.4
372.69 K, Liquid | 462.1
373.19 K, Liquid | 464.1
373.69 K, Liquid | 465.7
374.19 K, Liquid | 465.5
374.69 K, Liquid | 467.4
375.19 K, Liquid | 464.3
375.69 K, Liquid | 466.6
376.19 K, Liquid | 466.5
376.69 K, Liquid | 466.6
377.19 K, Liquid | 467.5
377.69 K, Liquid | 468.1
378.19 K, Liquid | 470.5
378.69 K, Liquid | 469.8
379.19 K, Liquid | 468.2
379.69 K, Liquid | 471.2
380.19 K, Liquid | 470
380.69 K, Liquid | 474
381.19 K, Liquid | 473.3
381.69 K, Liquid | 474
382.19 K, Liquid | 470.5
382.69 K, Liquid | 473.3
383.19 K, Liquid | 472.6
383.69 K, Liquid | 473.7
384.19 K, Liquid | 474.9
384.69 K, Liquid | 477.4
385.19 K, Liquid | 480
385.69 K, Liquid | 481.1
386.19 K, Liquid | 482.1
386.69 K, Liquid | 479
